Laboratory results reported in patent US20070105114A1, “Biomarkers of cyclin-dependent kinase modulation” (priority 2003, published 2007).
Where a name gives a salt, the structure may show the parent alone.

What was measured:
A2780 xenografts = test: Anti-tumor efficacy in A2780 xenografts (minimum efficacious dose); format: in vivo, mouse
Procedure: The human ovarian carcinoma xenograft A2780s were maintained in Balb/c nu/nu nude mice. Tumors were propagated as subcutaneous (sc) transplants using tumor fragments obtained from donor mice. For the cdk2 inhibitor treatment, tumors were allowed to grow to the pre-determined size window of approximately 100-200 mg (tumors outside the range were excluded) and animals were evenly distributed to various treatment and control groups (n=6). Treatment of each animal was based on individual body weight. The cdk2 inhibitor was first dissolved in a mixture of Cremophor®/ethanol (50:50). One hour prior to administration, the cdk2 inhibitor was diluted with water so that the dosing solutions contained the specified excipient composition, i.e., Cremophor®/ethanol/water (1:1:8, v/v). The volume of all compounds injected was 0.01 ml/gm of mice. The cdk2 inhibitor was administered as a bolus injection intraperitoneal at doses of 36 and 18 mg/kg. Tumor and plasma were sampled at the time points of 4, 7, and 24 hour post treatment. Plasma sample was frozen immediately at −80° C. for pharmacokinetic analysis, and tumor sample was preserved in RNAase free buffer for pharmacogenomic analysis. […] At the minimum efficacious dose (MED) of 18 mg/kg/day, the induction was sustained for more than 6 hours. […]

W28729 [1] = test: W28729 expression by real-time quantitative PCR in PBMC treated in vitro; format: cell-based; conditions: human PBMC in vitro, 10n-M, 4 hours
Procedure: Taqman® reactions were prepared as follows: 100 ng total RNA; 25 nM-750 nM Forward Primer; 25 nM-750 nM Reverse Primer; 200 nM-400 nM Taqman® Probe (fluorescent dye labeled oligonucleotide primer); 1X Buffer A (Applied Biosystems, Foster City, Calif., USA); 5.5 mM MgCl2; 300 μM DATP, dGTP, dTTP, dCTP; 1 U Amplitaq Gold; 20 U Superscript 2; 1 U RNase Inhibitor. Real-time PCR was performed using an Applied Biosystems 7700 Sequence Detection System. Conditions were as follows: 48° C. for 20 minutes (reverse transcription), 95° C. for 10 minutes (denaturation and activation of Amplitaq Gold), 40 cycles of PCR (95° C. for 15 seconds, 60° C. for 1 minutes).
(§1) The Sequence Detection System generates a Ct (threshold cycle) value that is used to calculate a concentration for each input messenger RNA template. Messenger RNA levels for each gene or fragment thereof of interest were normalized to GAPDH message levels to compensate for variations in total RNA quantity in the input sample. This was done by generating GAPDH Ct values for each cell line. Ct values for the gene or fragments thereof of interest and GAPDH were inserted into the δδCt equation: Relative Quantity of Nucleic Acid Template=2^δδCt=2^(δCta-δCtb)(δCta=Ct target−Ct GAPDH, δCtb=Ct reference−Ct GAPDH) which was used to calculate a normalized relative message level. […]

W28729 [2] = test: W28729 expression by real-time quantitative PCR in cultured A2780 tumor cells; format: cell-based, human; conditions: 20 nM
Procedure: Real-Time Quantitative PCR Assays: A Taqman® real-time-PCR fluorogenic assay (Applied Biosystems, Foster City, Calif., USA) was used to quantitate the levels of specific mRNA. The cdk2 inhibitor treated A2780s cells were harvested at approximately 70% confluence and total RNA was prepared using the Qiagen RNeasy 96 Kit.
Taqman® reactions were prepared as follows: 100 ng total RNA; 25 nM-750 nM Forward Primer; 25 nM-750 nM Reverse Primer; 200 nM-400 nM Taqman® Probe (fluorescent dye labeled oligonucleotide primer); 1X Buffer A (Applied Biosystems, Foster City, Calif., USA); 5.5 mM MgCl2; 300 μM DATP, dGTP, dTTP, dCTP; 1 U Amplitaq Gold; 20 U Superscript 2; 1 U RNase Inhibitor. Real-time PCR was performed using an Applied Biosystems 7700 Sequence Detection System. […]
as §1, with “This was done by generating GAPDH Ct values for each cell line.” left out

W28729 [3] = test: Clinical study CA174-002 (24 hr infusion), W28729 expression in patient PBMC by RT-PCR; format: in vivo, human; conditions: patients
Procedure: Patient inclusion criteria: The patient inclusion criteria included: primary solid malignancy refractory to current therapy and adequate bone marrow, hepatic, and renal function. Treatments: Two different treatments were undertaken: (i) 174-001 Study: 1 hr infusion of BMS-387032 q 3 wks; and (ii) 174-002 Study: 24 hr infusion of BMS-387032 q 3 wks. The sampling times were pre-dose, and 2, 6, 24 hour post-dose. W28729 Expression Analysis: RT-PCR. Patient blood samples were collected in PAXgene™ Blood Collection Tubes (Qiagen, catalog #762155). Total RNA was isolated following the manufacturer's instructions using a PAXgene™ blood RNA Kit (Qiagen, catalog #762134). W28729 and GAPDH (housekeeping gene) RNA abundance was measured by Taqman assays, using an ABI PRISM 7900 HT Sequence Detection System. W28729 abundance was normalized relative to GAPDH. Primer and probe sequences are as shown below.

Structure (SMILES): CC(C)(C)c1cnc(CSc2cnc(NC(=O)C3CCNCC3)s2)o1 [cdk2 inhibitor, N-5-[[5-(1,1-Dimethylethyl)-2-oxazolyl]methyl]thio]-2-thiazolyl-4-piperidinecarboxamide, 0.5-L-tartaric acid salt]
- minimum efficacious dose (MED) (A2780 xenografts; bolus i.p.): 18 mg/kg/day
- minimum efficacious dose (A2780 xenografts; infusion regimen): 40 mg/kg
- W28729 expression change (W28729 [1]): Upregulation of W28729 expression
- induction of W28729 (W28729 [2]): induction of W28729 occurred
- time after treatment at which W28729 induction was detected (W28729 [2]): 1 h
- W28729 induction in PBMC (W28729 [3]): modest induction of W28729 expression
- time W28729 induction was sustained following end of infusion (W28729 [3]): 6 h
